Literature values as cited in patent publication US20240207235A1, “NANOEMULSION FORMULATION FOR TREATING DISBETES MELLITUS (DM)” (KING FAISAL UNIVERSITY, priority 2022, published 2024).

solubility: low solubility
Compound: CCc1ccc(CCOc2ccc(CC3SC(=O)NC3=O)cc2)nc1 (stereo not shown) [PGZ, Pioglitazone]
